What was measured:
rat VR1 [1] = target: T1, rat VR1 (Rattus norvegicus, UniProt O35433); assay: [3H]resiniferatoxin (RTX) competition binding assay, VR1-transfected CHO cells
T1 construct: expressed in transfected cells
Description: The pUHG102 VR1 plasmid was transfected into CHO cells containing the pTet Off regulatory plasmid (Clontech). In these cells, expression of the VR1 is repressed in the presence of tetracycline but is induced upon removal of the antibiotic. Stable clones were isolated in culture medium containing puromycin (10 μg/mL) and maintained in HAM F12 medium supplemented with tetracycline (1 μg/mL), 5 μg/ml geniticin, 25 mM HEPES, 10% FBS. Cells utilized for assays were grown in culture medium without antibiotic for 48 h before use. Cells were seeded in T75 cell culture flasks in media without antibiotics and grown to approximately 90% confluence. The flasks were then washed with PBS and harvested in 0.25% trypsin, 1 mM EDTA. The cells were pelleted by gentle centrifugation and stored at −20° C. until assay.
Competition Binding Assay
Binding studies with [^3H]resiniferatoxin (RTX) were carried out as described previously with minor modifications (Szallasi et al., 1992). Binding assay mixtures were set up on ice and contained 50-100 pM [^3H]RTX, various concentrations of competing ligands, 0.25 mg/mL BSA (Cohn fraction V), and about 5×10^5 VR1-transfected cells. The final volume was adjusted to 350 μL with DPBS with Ca^2+ and Mg^2+ and 0.25 mg/mL bovine serum albumin. Non-specific binding was determined in the presence of 100 nM nonradioactive RTX. The binding reaction was initiated by transferring the assay mixtures to a 37° C. water bath and was terminated after a 60 min incubation period by cooling the tubes on ice. To reduce non-specific binding, 200 μg/ml α-glycoprotein was added. Membrane-bound RTX was then separated from the free by pelleting the membranes in a Beckman 12 benchtop centrifuge (15 min, maximal velocity), the tips of the tubes containing the pellets were cut off, and the radioactivity was determined by scintillation counting. Equilibrium binding parameters (Ki and cooperativity) were determined by fitting the Hill equation to the measured values with the aid of the program MicroCal Origin 6.0.
(§1) Initial stocks were dissolved in DMSO. For the binding assays, compounds were diluted in with DPBS with Ca^2+ and Mg^2+ and 0.25 mg/mL bovine serum albumin. For the calcium uptake assays, compounds were diluted in DMEM with 0.25 mg/mL bovine serum albumin.

rat VR1 [2] = target: T1, rat VR1; assay: 45Ca2+-uptake assay in CHO/VR1 cells, antagonism of capsaicin-stimulated uptake; format: cell-based; details: 45Ca2+ uptake stimulated by 50 nM capsaicin
Description: as §1
Molecules were characterized to determine whether they were full agonists, partial agonists, or antagonists. For studies of ^45Ca^2+ uptake by CHO/VR1 cells (Tet-off cells), the cells were plated in 24-well plates to yield a cell density 20-40% of that required to produce confluence. The next day the medium was changed to remove the tetracycline and induce VR1 expression. Experiments were performed approximately 36-40 hours after induction. For ^45Ca^2+ uptake assay, cells were incubated for 5 min at 37° C. in a total volume of 400 μL of serum free DMEM (containing 1.8 mM CaCl2) in the presence of 0.25 mg/mL BSA (Sigma), 1 μCi/mL ^45Ca^2+ (5-30 Ci/g from ICN, CA), and increasing concentrations of the compound to be tested. Immediately after the incubation, extracellular ^45Ca^2+ was removed by washing the cells three times with cold DPBS (containing 1.8 mM CaCl2). Then 400 μl RIPA buffer (50 mM Tris pH 7.4; 150 mM NaCl; 1% Triton X-100; 0.1% SDS; 1% sodium deoxycholate) was added to each well in order to lyse the cells. Plates were shaken slowly for 20 min; then 306 μL of cell lysate was transferred from each well into a scintillation vial and radioactivity was determined by scintillation counting. For each data point in each experiment, four wells were assayed. Data from these experiments were analyzed by computer fit to the Hill equation. At least 3 separate experiments were carried out for each compound. In order to determine antagonist activity, studies were performed in exactly the same fashion with the exception that 50 nM capsaicin was added to the assay mixture to stimulate ^45Ca^2+ uptake.

[3] = competition with [3H]RTX, rat VR1 in CHO cells, read-out: Ki (nM) Binding Affinity

T1 sequence (O35433 whole entry): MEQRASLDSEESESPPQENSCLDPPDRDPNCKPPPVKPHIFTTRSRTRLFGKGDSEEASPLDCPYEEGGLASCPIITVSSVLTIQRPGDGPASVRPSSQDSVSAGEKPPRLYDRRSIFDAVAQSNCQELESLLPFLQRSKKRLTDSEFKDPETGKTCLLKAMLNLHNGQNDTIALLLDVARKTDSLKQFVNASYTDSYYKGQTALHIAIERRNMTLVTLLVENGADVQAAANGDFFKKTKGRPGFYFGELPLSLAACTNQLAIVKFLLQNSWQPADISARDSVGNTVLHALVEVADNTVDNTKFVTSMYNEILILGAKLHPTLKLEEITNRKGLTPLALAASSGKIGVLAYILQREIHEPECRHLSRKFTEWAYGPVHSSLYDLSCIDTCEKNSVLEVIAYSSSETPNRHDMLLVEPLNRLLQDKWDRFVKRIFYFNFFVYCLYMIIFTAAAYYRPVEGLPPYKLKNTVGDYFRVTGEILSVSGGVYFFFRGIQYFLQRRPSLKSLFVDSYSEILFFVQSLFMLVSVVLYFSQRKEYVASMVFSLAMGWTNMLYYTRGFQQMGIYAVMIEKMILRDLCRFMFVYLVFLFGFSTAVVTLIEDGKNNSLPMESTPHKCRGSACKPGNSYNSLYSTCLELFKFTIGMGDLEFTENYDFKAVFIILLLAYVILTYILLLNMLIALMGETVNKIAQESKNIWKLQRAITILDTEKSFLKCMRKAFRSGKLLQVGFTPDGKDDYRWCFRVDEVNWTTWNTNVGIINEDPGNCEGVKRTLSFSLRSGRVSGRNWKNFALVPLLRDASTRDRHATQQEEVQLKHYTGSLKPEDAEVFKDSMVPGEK

SMILES	melting point	Ki (rat VR1 [1])	Ki (rat VR1 [2])	Ki (rat VR1 [1]; [3])
CC(C(=O)NCc1ccc(Cl)c(Cl)c1)c1ccc(NS(C)(=O)=O)cc1 (stereo not drawn) [2-9, N-(3,4-Dichlorobenzyl)-2-[4-(methylsulfonylamino)phenyl]propionamide]	130 °C	1650 nM	253 nM	–
CC(C(=O)NCc1ccc(Cl)cc1)c1ccc(NS(C)(=O)=O)c(F)c1 (stereo not drawn) [4-1, N-(4-Chlorobenzyl)-2-[3-fluoro-4-(methylsulfonylamino)phenyl]propionamide]	129 to 130 °C	–	367 nM	1060 nM
CC(C(=O)NCc1ccc(Cl)cc1)c1ccc(NS(C)(=O)=O)c(Cl)c1 (stereo not drawn) [4-2, N-(4-Chlorobenzyl)-2-[3-chloro-4-(methylsulfonylamino)phenyl]propionamide]	134 to 135 °C	729 nM	447 nM	–
CC(C(=O)NCc1ccc(Cl)cc1)c1ccc(NS(C)(=O)=O)c(Br)c1 (stereo not drawn) [4-3, N-(4-Chlorobenzyl)-2-[3-bromo-4-(methylsulfonylamino)phenyl]propionamide]	147 °C	541 nM	296 nM	–
CC(C(=O)NCc1ccc(Cl)c(Cl)c1)c1ccc(NS(C)(=O)=O)c(F)c1 (stereo not drawn) [4-4, N-(3,4-Dichlorobenzyl)-2-[3-fluoro-4-(methylsulfonylamino)phenyl]propionamide]	130 to 133 °C	–	115 nM	199 nM
CC(C(=O)NCc1ccc(Cl)c(Cl)c1)c1ccc(NS(C)(=O)=O)c(Cl)c1 (stereo not drawn) [4-5, N-(3,4-Dichlorobenzyl)-2-[3-chloro-4-(methylsulfonylamino)phenyl]propionamide]	129 to 130 °C	289 nM	176 nM	–
CC(C(=O)NCc1ccc(Cl)c(Cl)c1)c1ccc(NS(C)(=O)=O)c(Br)c1 (stereo not drawn) [4-6, N-(3,4-Dichlorobenzyl)-2-[3-bromo-4-(methylsulfonylamino)phenyl]propionamide]	161 to 162 °C	226 nM	89.6 nM	–
CC(C)c1ccc(CNC(=O)C(C)c2ccc(NS(C)(=O)=O)c(F)c2)cc1 (stereo not drawn) [4-8, N-(4-Isopropylbenzyl)-2-[3-fluoro-4-(methylsulfonylamino)phenyl]propionamide]	137 to 139 °C	–	143 nM	127 nM
CC(C(=O)NCc1ccc(C(F)(F)F)cc1)c1ccc(NS(C)(=O)=O)c(F)c1 (stereo not drawn) [4-10, N-(4-Trifluoromethylbenzyl)-2-[3-fluoro-4-(methylsulfonylamino)phenyl]propionamide]	150 to 152 °C	–	274 nM	657 nM
CC(C(=O)NCc1ccc(-c2ccccc2)cc1)c1ccc(NS(C)(=O)=O)c(F)c1 (stereo not drawn) [4-11, N-(4-Biphenylmethyl)-2-[3-fluoro-4-(methylsulfonylamino)phenyl]propionamide]	155 to 157 °C	–	261 nM	1750 nM
CC(C(=O)NCc1cccc2ccccc12)c1ccc(NS(C)(=O)=O)c(F)c1 (stereo not drawn) [4-12, N-(1-Naphthylmethyl)-2-[3-fluoro-4-(methylsulfonylamino)phenyl]propionamide]	159 to 161 °C	–	239 nM	959 nM
CC(C(=O)NCCc1ccc(C(C)(C)C)cc1)c1ccc(NS(C)(=O)=O)c(F)c1 (stereo not drawn) [4-14, N-[2-(4-t-Butylphenyl)ethyl]-2-[3-fluoro-4-(methylsulfonylamino)phenyl]propionamide]	124 to 126 °C	–	42.6 nM	553 nM
CC(C(=O)NCC(c1ccccc1)c1ccccc1)c1ccc(NS(C)(=O)=O)c(F)c1 (stereo not drawn) [4-23, N-(2,2-Diphenylethyl)-2-[3-fluoro-4-(methylsulfonylamino)phenyl]propionamide]	129 °C	–	2490 nM	1700 nM
CC(C(=O)NCCC(c1ccccc1)c1ccccc1)c1ccc(NS(C)(=O)=O)c(F)c1 (stereo not drawn) [4-24, N-(3,3-Diphenylpropyl)-2-[3-fluoro-4-(methylsulfonylamino)phenyl]propionamide]	66 to 68 °C	128 nM	36.6 nM	–
Cc1ccc(C(=CCNC(=O)C(C)c2ccc(NS(C)(=O)=O)c(F)c2)c2ccc(C)cc2)cc1 (stereo not drawn) [4-26, N-[3,3-Di(4-methylphenyl)-2-propenyl]-2-[3-fluoro-4-(methylsulfonylamino)phenyl]propionamide]	163 to 165 °C	36 nM	8.03 nM	–
CC(C(=O)NCC=C(c1ccc(F)cc1)c1ccc(F)cc1)c1ccc(NS(C)(=O)=O)c(F)c1 (stereo not drawn) [4-27, N-[3,3-Di(4-fluorophenyl)-2-propenyl]-2-[3-fluoro-4-(methylsulfonylamino)phenyl]propionamide]	57 to 60 °C	–	29.3 nM	43.3 nM
CC(C(=O)NCC=C1c2ccccc2CCc2ccccc21)c1ccc(NS(C)(=O)=O)c(F)c1 (stereo not drawn) [4-28, N-[2-(10,11-Dihydro-5H-dibenzo[a,d]cyclohepten-5-yliden)ethyl]-2-[3-fluoro-4-(methylsulfonylamino)phenyl]propionamide]	67 to 69 °C	–	121 nM	141 nM
Cc1ccc(CC(CNC(=O)C(C)c2ccc(NS(C)(=O)=O)cc2)COC(=O)C(C)(C)C)cc1C (stereo not drawn) [5-1, N-[2-(3,4-Dimethylbenzyl)-3-pivaloyloxypropyl]-2-[4-(methylsulfonylamino)phenyl]propionamide]	112 to 115 °C	–	38 nM	119 nM
CC(C(=O)NCC(COC(=O)C(C)(C)C)Cc1ccc(C(C)(C)C)cc1)c1ccc(NS(C)(=O)=O)cc1 (stereo not drawn) [5-2, N-[2-(4-t-Butylbenzyl)-3-pivaloyloxypropyl]-2-[4-(methylsulfonylamino)phenyl]propionamide]	97 to 100 °C	–	52 nM	55.2 nM
Cc1ccc(CC(CNC(=O)C(C)c2ccc(NS(C)(=O)=O)c(F)c2)COC(=O)C(C)(C)C)cc1C (stereo not drawn) [5-3, 2-[3-Fluoro-4-(methylsulfonylamino)phenyl]-N-[2-(3,4-dimethylbenzyl)-3-pivaloyloxypropyl]propionamide]	46 to 48 °C	–	10.8 nM	33.1 nM
CC(C(=O)NCC(COC(=O)C(C)(C)C)Cc1ccc(C(C)(C)C)cc1)c1ccc(NS(C)(=O)=O)c(F)c1 (stereo not drawn) [5-4, 2-[3-Fluoro-4-(methylsulfonylamino)phenyl]-N-[2-(4-tert-butylbenzyl)-3-pivaloyloxypropyl]propionamide]	113 to 115 °C	–	3.24 nM	13.6 nM
COc1cc(C(C)C(=O)NCC(COC(=O)C(C)(C)C)Cc2ccc(C)c(C)c2)ccc1NS(C)(=O)=O (stereo not drawn) [5-5, N-[2-(3,4-Dimethylbenzyl)-3-pivaloyloxypropyl]-2-[3-methoxy-4-(methylsulfonylamino)phenyl]propionamide]	54 to 57 °C	–	13.6 nM	71.2 nM
Cc1ccc(CC(CNC(=O)C(C)c2ccc(NS(C)(=O)=O)c(Cl)c2)COC(=O)C(C)(C)C)cc1C (stereo not drawn) [5-7, N-[2-(3,4-Dimethylbenzyl)-3-pivaloyloxypropyl]-2-[3-chloro-4-(methylsulfonylamino)phenyl]propionamide]	127 to 129 °C	–	35.7 nM	11.3 nM
CC(C(=O)NCC(COC(=O)C(C)(C)C)Cc1ccc(C(C)(C)C)cc1)c1ccc(NS(C)(=O)=O)c(Cl)c1 (stereo not drawn) [5-8, N-[2-(4-tert-Butylbenzyl)-3-pivaloyloxypropyl]-2-[3-chloro-4-(methylsulfonylamino)phenyl]propionamide]	142 to 144 °C	–	12.3 nM	3.62 nM
